Measurements published in patent publication US20100144733A1, “Compounds, compositions and methods comprising heteroaromatic derivatives” (Institute for OneWorld Health, priority 2008, published 2010).
Like-named read-outs stand apart in the source and are kept apart here.

Columns and labels:
CFTR = molecular target: T1, CFTR (Homo sapiens, UniProt P13569); experiment: T84 assay (FLIPR membrane potential dye, forskolin/IBMX-stimulated CFTR channel activity); assay type: cell-based
T1 construct: endogenous in cells; host or cells: T84 human colonic cells (ECACC)
T1 sequence (P13569 whole entry): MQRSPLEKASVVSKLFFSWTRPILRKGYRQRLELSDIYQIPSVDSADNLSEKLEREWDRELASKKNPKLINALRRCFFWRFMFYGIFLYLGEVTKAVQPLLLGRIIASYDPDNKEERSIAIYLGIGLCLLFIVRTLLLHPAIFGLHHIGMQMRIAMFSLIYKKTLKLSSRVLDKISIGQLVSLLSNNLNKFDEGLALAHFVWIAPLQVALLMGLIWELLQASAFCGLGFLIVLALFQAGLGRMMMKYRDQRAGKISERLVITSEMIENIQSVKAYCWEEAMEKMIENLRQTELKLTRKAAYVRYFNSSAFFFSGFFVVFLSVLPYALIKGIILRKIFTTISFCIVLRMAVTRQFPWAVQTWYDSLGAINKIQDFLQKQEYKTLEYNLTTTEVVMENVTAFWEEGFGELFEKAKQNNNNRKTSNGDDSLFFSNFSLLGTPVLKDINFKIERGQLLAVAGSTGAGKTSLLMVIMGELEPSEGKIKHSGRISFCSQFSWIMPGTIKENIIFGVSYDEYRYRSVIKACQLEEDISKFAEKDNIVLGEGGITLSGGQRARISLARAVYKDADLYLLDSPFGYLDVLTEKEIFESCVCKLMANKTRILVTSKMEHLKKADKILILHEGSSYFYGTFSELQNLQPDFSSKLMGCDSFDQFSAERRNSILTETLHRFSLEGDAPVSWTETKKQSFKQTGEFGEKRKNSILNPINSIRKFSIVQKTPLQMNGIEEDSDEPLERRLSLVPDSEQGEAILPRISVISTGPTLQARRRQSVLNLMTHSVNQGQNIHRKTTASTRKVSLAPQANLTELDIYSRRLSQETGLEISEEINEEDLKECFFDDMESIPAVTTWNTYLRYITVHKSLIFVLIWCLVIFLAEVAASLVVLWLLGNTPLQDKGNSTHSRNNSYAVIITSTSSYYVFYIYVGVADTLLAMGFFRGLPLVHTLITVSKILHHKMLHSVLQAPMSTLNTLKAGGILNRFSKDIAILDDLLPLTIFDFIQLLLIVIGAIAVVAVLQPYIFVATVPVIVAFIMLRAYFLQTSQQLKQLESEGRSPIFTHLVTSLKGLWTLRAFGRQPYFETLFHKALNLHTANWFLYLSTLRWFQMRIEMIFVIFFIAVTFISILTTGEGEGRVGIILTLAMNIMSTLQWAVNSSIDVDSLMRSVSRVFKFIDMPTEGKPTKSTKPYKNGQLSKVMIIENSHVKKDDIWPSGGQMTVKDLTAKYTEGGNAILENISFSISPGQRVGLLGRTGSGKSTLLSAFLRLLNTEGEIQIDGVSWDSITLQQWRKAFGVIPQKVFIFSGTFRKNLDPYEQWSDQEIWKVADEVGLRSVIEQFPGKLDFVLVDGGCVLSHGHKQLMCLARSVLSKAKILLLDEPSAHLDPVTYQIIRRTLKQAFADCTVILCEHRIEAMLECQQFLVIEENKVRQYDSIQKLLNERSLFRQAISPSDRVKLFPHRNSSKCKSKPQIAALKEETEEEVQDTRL
In short: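 Fluorescence from a membrane potential dye in T84 monolayers (HBSS with 10 mM Hepes) is followed each second for 150 s. Cells are exposed to test compound during the 45 min dye loading, then challenged with forskolin (10 μM) and IBMX (100 μM) to open CFTR. Inhibitors suppress the depolarization-driven fluorescence increase.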

[1] = system: cholera toxin (CTX) induced net fluid secretion in intestinal loops; experiment: animal or person; assay type: in vivo, mice (CD1 strain); conditions: 4 hours; for inhibition in vivo at 100 µg/loop: Mus musculus, read-out: closed loop % inhibition @ 100 μg
CHO-CFTR cell line = molecular target: T2, CHO-CFTR cell line (Homo sapiens, UniProt P13569); experiment: CHO-CFTR assay (FLIPR assay, same conditions as the T84 assay); assay type: cell-based; conditions: imidazole and triazole-containing compounds
T2 construct: expressed in transfected cells; host or cells: CHO (CHO-CFTR cell line)
T2 sequence (P13569 whole entry): as above

[2] = oxadiazole-containing compounds (a series), average of at least 2 runs unless annotated n = 1, read-out: IC50
[3] = imidazole and triazole-containing compounds (Tables 13, 14, 14′), read-out: IC50 (μM) (T84 assay)

CC(C)(C)C(=O)CN(Cc1cccc(C(F)(F)F)c1)C(=O)c1nc(-c2cc(Br)c(O)c(Br)c2)no1 [1a, 3-(3,5-dibromo-4-hydroxyphenyl)-N-(3,3-dimethyl-2-oxobutyl)-N-(3-(trifluoromethyl)benzyl)-1,2,4-oxadiazole-5-carboxamide]
IC50 (CFTR; [2]): 0.98 µM
closed loop % inhibition @ 10 μg [1]: 69.4%
inhibition in vivo at 100 µg/loop [1]: 87.1%

CN(Cc1ccc(C(F)(F)F)cc1)C(=O)c1cc(-c2cc(Br)c(O)c(Br)c2)on1 [2g, 5-(3,5-Dibromo-4-hydroxyphenyl)-N-methyl-N-(4(trifluoromethyl)benzyl)isoxazole-3-carboxamide]
IC50 (CFTR; isoxazole-containing compounds (Table 10, 10′, 11, 11′), read-out: IC50): 6.96 µM
closed loop % inhibition @ 10 μg [1]: −66.3%
inhibition in vivo at 100 µg/loop [1]: 94.2%

O=C(NCc1ccc(Oc2ccccc2)cc1)c1nc(-c2cc(Br)c(O)c(Br)c2)no1 [13a, 3-(3,5-dibromo-4-hydroxyphenyl)-N-(4-phenoxybenzyl)-1,2,4-oxadiazole-5-carboxamide]
IC50 (CFTR; [2]): 8.51 µM
closed loop % inhibition @ 10 μg [1]: 88.6%
inhibition in vivo at 100 µg/loop [1]: 94.7%

Oc1c(Br)cc(-c2cnc(OCc3ccc(Cl)cc3)nn2)cc1Br [20e, 2,6-dibromo-4-(3-(4-chlorobenzyloxy)-1,2,4-triazin-6-yl)phenol]
closed loop % inhibition @ 100 μg [1]: 87.6%

Oc1c(Br)cc(-c2cnc(COc3cccc(Cl)c3Cl)nn2)cc1Br [30e, 2,6-dibromo-4(3-((2,3-dichlorophenoxy)methyl)-1,2,4-triazin-6-yl)phenol]
closed loop % inhibition @ 100 μg [1]: 94.4%

Oc1c(Cl)cc(-c2cnc(C(O)(c3ccccc3)c3ccccc3)nn2)cc1Cl [36e, 2,6-dichloro-4-(3-(hydroxydiphenylmethyl)-1,2,4-triazin-6-yl)phenol]
closed loop % inhibition @ 10 μg [1]: 62.1%
closed loop % inhibition @ 100 μg [1]: 74.9%

O=C(NCc1cccc(OC(F)(F)F)c1)c1noc(-c2cc(Br)c(O)c(Br)c2)n1 [65a, 5-(3,5-Dibromo-4-hydroxyphenyl)-N-(3-(trifluoromethoxy)benzyl)-1,2,4-oxadiazole-3-carboxamide]
IC50 (CFTR; [2]): 1.53 µM
inhibition in vivo at 100 µg/loop [1]: 94.6%

Oc1c(Br)cc(-c2cnc(OCCc3ccccc3)nn2)cc1Br [96e, 2,6-dibromo-4-(3-phenethoxy-1,2,4-triazin-6-yl)phenol]
closed loop % inhibition @ 100 μg [1]: 78.6%

OCCN(Cc1ccccc1)c1ccc(-c2cc(Cl)c(O)c(Cl)c2)nn1 [98f, 4-(6-(benzyl(2-hydroxyethyl)amino)pyridazin-3-yl)-2,6-dichlorophenol]
closed loop % inhibition @ 100 μg [1]: 67.0%

O=C(NCc1cc(F)cc(F)c1)c1noc(-c2cc(Cl)c(O)c(Cl)c2)n1 [112a, 5-(3,5-dichloro-4-hydroxyphenyl)-N-(3,5-difluorobenzyl)-1,2,4-oxadiazole-3-carboxamide]
IC50 (CFTR; [2]): 11.2 µM
inhibition in vivo at 100 µg/loop [1]: 51%

COCCOCCOCCN(Cc1ccc(Cl)c(Cl)c1)C(=O)c1ncn(-c2cc(Cl)c(O)c(Cl)c2)n1 [114i, 1-(3,5-dichloro-4-hydroxyphenyl)-N-(3,4-dichlorobenzyl)-N-(2-(2-(2-methoxyethoxy)ethoxy)ethyl)-1H-1,2,4-triazole-3-carboxamide]
IC50 (CFTR; [3]): 6.63 µM
IC50 (CHO-CFTR cell line): 22.7 µM

CCN(Cc1ccccc1)c1ccc(-c2cc(Cl)c(O)c(Cl)c2)nn1 [115f, 4-(6-(benzyl(ethyl)amino)pyridazin-3-yl)-2,6-dichlorophenol]
closed loop % inhibition @ 100 μg [1]: 79.4%

COCCOCCOCCN(Cc1ccc(Oc2ccccc2)cc1)C(=O)c1ncn(-c2cc(Cl)c(O)c(Cl)c2)n1 [119i, 1-(3,5-dichloro-4-hydroxyphenyl)-N-(2-(2-(2-methoxyethoxy)ethoxy)ethyl)-N-(4-phenoxybenzyl)-1H-1,2,4-triazole-3-carboxamide]
IC50 (CFTR; [3]): 5.11 µM
IC50 (CHO-CFTR cell line): 11.5 µM

O=C(NCc1cccc(OC(F)(F)F)c1)c1noc(-c2cc(Cl)c(O)c(Cl)c2O)n1 [120a, 5-(3,5-dichloro-2,4-dihydroxyphenyl)-N-(3-(trifluoromethoxy)benzyl)-1,2,4-oxadiazole-3-carboxamide]
IC50 (CFTR; [2]): 12.4 µM
inhibition in vivo at 100 µg/loop [1]: 62.3%

CON(Cc1cccc(C(F)(F)F)c1)C(=O)c1ncn(-c2cc(Cl)c(O)c(Cl)c2)n1 [124i, 1-(3,5-dichloro-4-hydroxyphenyl)-N-methoxy-N-(3-(trifluoromethyl)benzyl)-1H-1,2,4-triazole-3-carboxamide]
IC50 (CFTR; [3]): 8.22 µM
IC50 (CHO-CFTR cell line): 6.03 µM

CON(Cc1cccc(OC(F)(F)F)c1)C(=O)c1ncn(-c2cc(Cl)c(O)c(Cl)c2)n1 [125i, 1-(3,5-dichloro-4-hydroxyphenyl)-N-methoxy-N-(3-(trifluoromethoxy)benzyl)-1H-1,2,4-triazole-3-carboxamide]
IC50 (CFTR; [3]): 3.44 µM
IC50 (CHO-CFTR cell line): 9.67 µM

CON(Cc1ccc(Cl)c(Cl)c1)C(=O)c1ncn(-c2cc(Cl)c(O)c(Cl)c2)n1 [126i, 1-(3,5-dichloro-4-hydroxyphenyl)-N-(3,4-dichlorobenzyl)-N-methoxy-1H-1,2,4-triazole-3-carboxamide]
IC50 (CFTR; [3]): 2.43 µM
IC50 (CHO-CFTR cell line): 2.46 µM

Oc1c(Cl)cc(-c2cnc(OCc3ccccc3F)nn2)cc1Cl [127e, 2,6-dichloro-4-(3-(2-fluorobenzyloxy)-1,2,4-triazin-6-yl)phenol]
closed loop % inhibition @ 10 μg [1]: 62.7%
closed loop % inhibition @ 100 μg [1]: 70.2%

CON(Cc1ccc(C(C)(C)C)cc1)C(=O)c1ncn(-c2cc(Cl)c(O)c(Cl)c2)n1 [127i, N-(4-tert-butylbenzyl)-1-(3,5-dichloro-4-hydroxyphenyl)-N-methoxy-1H-1,2,4-triazole-3-carboxamide]
IC50 (CFTR; [3]): 1.49 µM
IC50 (CHO-CFTR cell line): 32.9 µM

CON(Cc1ccc(Oc2ccccc2)cc1)C(=O)c1ncn(-c2cc(Cl)c(O)c(Cl)c2)n1 [129i, 1-(3,5-dichloro-4-hydroxyphenyl)-N-methoxy-N-(4-phenoxybenzyl)-1H-1,2,4-triazole-3-carboxamide]
IC50 (CFTR; [3]): 2.61 µM
IC50 (CHO-CFTR cell line): 22.5 µM

CCON(Cc1ccc(Oc2ccccc2)cc1)C(=O)c1ncn(-c2cc(Cl)c(O)c(Cl)c2)n1 [130i, 1-(3,5-dichloro-4-hydroxyphenyl)-N-ethoxy-N-(4-phenoxybenzyl)-1H-1,2,4-triazole-3-carboxamide]
IC50 (CFTR; [3]): 2.84 µM
IC50 (CHO-CFTR cell line): 4.09 µM

O=C(c1ncn(-c2cc(Cl)c(O)c(Cl)c2)n1)N(O)Cc1ccc(Oc2ccccc2)cc1 [131i, 1-(3,5-dichloro-4-hydroxyphenyl)-N-hydroxy-N-(4-phenoxybenzyl)-1H-1,2,4-triazole-3-carboxamide]
IC50 (CFTR; [3]): 4.87 µM
IC50 (CHO-CFTR cell line): 7.45 µM

CC(C)(C)C(=O)C(Cc1cccc(C(F)(F)F)c1)NC(=O)c1ncn(-c2cc(Cl)c(O)c(Cl)c2)n1 (stereo not drawn) [132i, 1-(3,5-dichloro-4-hydroxyphenyl)-N-(4,4-dimethyl-3-oxo-1-(3-(trifluoromethyl)phenyl)pentan-2-yl)-1H-1,2,4-triazole-3-carboxamide]
IC50 (CFTR; [3]): 3.87 µM
IC50 (CHO-CFTR cell line): 26.5 µM

CC(C)(C)C(=O)C(Cc1cccc(OC(F)(F)F)c1)NC(=O)c1ncn(-c2cc(Cl)c(O)c(Cl)c2)n1 (stereo not drawn) [133i, 1-(3,5-dichloro-4-hydroxyphenyl)-N-(4,4-dimethyl-3-oxo-1-(3-(trifluoromethoxy)phenyl)pentan-2-yl)-1H-1,2,4-triazole-3-carboxamide]
IC50 (CFTR; [3]): 1.23 µM
IC50 (CHO-CFTR cell line): 21 µM

CC(C)c1ccc(CC(NC(=O)c2ncn(-c3cc(Cl)c(O)c(Cl)c3)n2)C(=O)C(C)(C)C)cc1 (stereo not drawn) [134i, 1-(3,5-dichloro-4-hydroxyphenyl)-N-(1-(4-isopropylphenyl)-4,4-dimethyl-3-oxopentan-2-yl)-1H-1,2,4-triazole-3-carboxamide]
IC50 (CFTR; [3]): 3.09 µM
IC50 (CHO-CFTR cell line): 8.6 µM
